From PubChem BioAssay AID192 (DTP/NCI, 2004)
Where “and” joins values, the source holds several entries; their conditions need not be identical. Equal entries are not always repeated. Inconclusive results and toxic doses are left out. How the source made its calls: active means survival T/C of 150% or more; inactive means T/C below 125% in these data.

Tested on: BDF1 mice, B16 melanoma ip, median survival T/C
Test: NCI In Vivo Anticancer Drug Screen. Data for tumor model B16 Melanoma (intraperitoneal) in B6D2F1 (BDF1) mice
Conditions: endpoint: median survival time, higher = longer survival
How it was run: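 Mice with transplantable tumors; drug vs vehicle groups; endpoint survival or tumor size; value = T/C.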

[1] = dose: 0.78 mg/kg/injection, schedule: Q01DX009 (ip), vehicle: Klucel (hydroxypropylcellulose) (HPC)
[2] = dose: 6.25 mg/kg/injection, schedule: Q01DX009 (ip), vehicle: Klucel (hydroxypropylcellulose) (HPC)
[3] = dose: 12.5 mg/kg/injection, schedule: Q01DX009 (ip), vehicle: Klucel (hydroxypropylcellulose) (HPC)
[4] = dose: 12.5 mg/kg/injection, schedule: Q01DX009 (ip), vehicle: saline with Tween-80
[5] = dose: 25.0 mg/kg/injection, schedule: Q01DX009 (ip), vehicle: saline with Tween-80
[6] = dose: 50.0 mg/kg/injection, schedule: Q01DX009 (ip), vehicle: saline with Tween-80
[7] = dose: 100.0 mg/kg/injection, schedule: Q01DX009 (ip), vehicle: saline with Tween-80
[8] = dose: 200.0 mg/kg/injection, schedule: Q01DX009 (ip), vehicle: saline with Tween-80
[9] = dose: 400.0 mg/kg/injection, schedule: Q01DX009 (ip), vehicle: saline with Tween-80
[10] = dose: 25.0 mg/kg/injection, schedule: Q01DX009 (ip), vehicle: Klucel (hydroxypropylcellulose) (HPC)
[11] = dose: 50.0 mg/kg/injection, schedule: Q01DX009 (ip), vehicle: Klucel (hydroxypropylcellulose) (HPC)
[12] = dose: 5.0 mg/kg/injection, schedule: Q01DX009 (ip), vehicle: saline with Tween-80
[13] = dose: 10.0 mg/kg/injection, schedule: Q01DX009 (ip), vehicle: saline with Tween-80
[14] = dose: 1.56 mg/kg/injection, schedule: Q01DX009 (ip), vehicle: water
[15] = dose: 6.25 mg/kg/injection, schedule: Q01DX009 (ip), vehicle: water
[16] = dose: 12.5 mg/kg/injection, schedule: Q01DX009 (ip), vehicle: water
[17] = dose: 2.5 mg/kg/injection, schedule: Q01DX009 (ip), vehicle: saline with Tween-80

Measured: T/C

COc1c(I)c2c(c(OC)c1OC)-c1ccc(OC)c(=O)cc1C(NC(C)=O)CC2 (stereo not given)
inactive: [1] 104 % of control | dose: 1.56 mg/kg/injection, schedule: Q01DX009 (ip), vehicle: Klucel (hydroxypropylcellulose) (HPC) 104 % of control and 124 % of control | dose: 3.12 mg/kg/injection, schedule: Q01DX009 (ip), vehicle: Klucel (hydroxypropylcellulose) (HPC) 112 % of control | [2] 121 % of control | [3] 112 % of control

Cn1ccc(=Nc2ccc(NC(=O)c3ccc(N=c4ccn(C)c5ccc([N+](=O)[O-])cc45)cc3[N+](=O)[O-])cc2)cc1
inactive: [4] 96 % of control | [5] 97 % of control | [6] 97 % of control | [7] 105 % of control | [8] 97 % of control | [9] 91 % of control

N#CCc1c(Cl)ccc(Cl)c1Cl
inactive: [2] 104 % of control | [3] 99 % of control | [10] 95 % of control | [11] 107 % of control

O=C(OCCOCCOCCOC(=O)c1ccccc1)c1ccccc1
inactive: dose: 400.0 mg/kg/injection, schedule: Q01DX009 (ip), vehicle: Klucel (hydroxypropylcellulose) (HPC) 121 % of control

CC1CCC[N-]C1.CC1CCC[N-]C1.CC1CCC[N-]C1.CC1CCC[N-]C1.[Cl][Rh][Cl] (stereo not given)
inactive: dose: 3.0 mg/kg/injection, schedule: Q01DX009 (ip), vehicle: Klucel (hydroxypropylcellulose) (HPC) 111 % of control | dose: 6.0 mg/kg/injection, schedule: Q01DX009 (ip), vehicle: Klucel (hydroxypropylcellulose) (HPC) 110 % of control | dose: 12.0 mg/kg/injection, schedule: Q01DX009 (ip), vehicle: Klucel (hydroxypropylcellulose) (HPC) 115 % of control

CC(O)CN1CC(C)OC(C)C1 (stereo not given)
inactive: dose: 100.0 mg/kg/injection, schedule: Q01DX009 (ip), vehicle: saline 97 % of control | dose: 200.0 mg/kg/injection, schedule: Q01DX009 (ip), vehicle: saline 90 % of control | dose: 400.0 mg/kg/injection, schedule: Q01DX009 (ip), vehicle: saline 97 % of control

COc1cccc(/C=C/[N+](=O)[O-])c1
inactive: [12] 98 % of control | [13] 101 % of control | dose: 20.0 mg/kg/injection, schedule: Q01DX009 (ip), vehicle: saline with Tween-80 94 % of control and 98 % of control

CCCn1c(=S)[nH]c2ccccc2c1=O
inactive: [10] 120 % of control | [5] 100 % of control | [11] 100 % of control | [6] 92 % of control | dose: 66.0 mg/kg/injection, schedule: Q01DX009 (ip), vehicle: saline with Tween-80 100 % of control | dose: 100.0 mg/kg/injection, schedule: Q01DX009 (ip), vehicle: Klucel (hydroxypropylcellulose) (HPC) 86 % of control and 102 % of control | [7] 87 % of control and 94 % of control | dose: 150.0 mg/kg/injection, schedule: Q01DX009 (ip), vehicle: saline with Tween-80 86 % of control

COc1ccc(-c2csc(=[N+]3CCCCC3)s2)cc1
inactive: [14] 94 % of control and 95 % of control | dose: 3.12 mg/kg/injection, schedule: Q01DX009 (ip), vehicle: water 90 % of control and 101 % of control | [15] 101 % of control and 102 % of control | [16] 103 % of control and 109 % of control | dose: 25.0 mg/kg/injection, schedule: Q01DX009 (ip), vehicle: water 86 % of control and 110 % of control

Cc1ccc([N+](=O)[O-])cc1NC(=O)Oc1ccc(Cl)cc1
inactive: dose: 25.0 mg/kg/injection, schedule: Q04DX009 (ip), vehicle: Klucel (hydroxypropylcellulose) (HPC) 94 % of control | dose: 50.0 mg/kg/injection, schedule: Q04DX009 (ip), vehicle: Klucel (hydroxypropylcellulose) (HPC) 104 % of control | dose: 100.0 mg/kg/injection, schedule: Q04DX003 (ip), vehicle: carboxymethylcellulose (CMC) 93 % of control | dose: 100.0 mg/kg/injection, schedule: Q04DX009 (ip), vehicle: Klucel (hydroxypropylcellulose) (HPC) 96 % of control | dose: 400.0 mg/kg/injection, schedule: Q04DX003 (ip), vehicle: carboxymethylcellulose (CMC) 86 % of control

CCCCCC#CC(=O)OC
inactive: [4] 102 % of control | [5] 86 % of control | [6] 86 % of control

COC1OC2COC(c3ccccc3)OC2C(O)C1N (stereo not given)
inactive: [5] 95 % of control | dose: 33.0 mg/kg/injection, schedule: Q04DX003 (ip), vehicle: saline with Tween-80 91 % of control | [6] 95 % of control | dose: 75.0 mg/kg/injection, schedule: Q04DX003 (ip), vehicle: saline with Tween-80 93 % of control | [7] 90 % of control

CCCCCCCCCCCCCCCC(=O)N(CCCN(C)C)CCCN(CCCN(C)C)C(=O)CCCCCCCCCCCCCCC
inactive: [14] 106 % of control | dose: 3.13 mg/kg/injection, schedule: Q01DX009 (ip), vehicle: water 101 % of control | [15] 92 % of control | [16] 87 % of control

CN(C)CCCn1c2c(c3ccccc31)CCCCCC2
inactive: dose: 3.12 mg/kg/injection, schedule: Q01DX009 (ip), vehicle: saline 119 % of control | dose: 6.25 mg/kg/injection, schedule: Q01DX009 (ip), vehicle: saline 100 % of control | dose: 12.5 mg/kg/injection, schedule: Q01DX009 (ip), vehicle: saline 100 % of control | dose: 25.0 mg/kg/injection, schedule: Q01DX009 (ip), vehicle: saline 113 % of control | dose: 50.0 mg/kg/injection, schedule: Q01DX009 (ip), vehicle: saline 94 % of control

Oc1ccccc1OCc1ccccc1
inactive: dose: 100.0 mg/kg/injection, schedule: Q04DX003 (ip), vehicle: Klucel (hydroxypropylcellulose) (HPC) 107 % of control | dose: 200.0 mg/kg/injection, schedule: Q04DX003 (ip), vehicle: Klucel (hydroxypropylcellulose) (HPC) 105 % of control | dose: 400.0 mg/kg/injection, schedule: Q04DX003 (ip), vehicle: Klucel (hydroxypropylcellulose) (HPC) 105 % of control

O=c1cccccc1O.O=c1cccccc1O.[Cu]
inactive: dose: 0.39 mg/kg/injection, schedule: Q01DX009 (ip), vehicle: Klucel (hydroxypropylcellulose) (HPC) 102 % of control | [1] 92 % of control

CC(O)C(O)C(O)C(/C=N\N=C(/N)[S-])=N/N=C(\N)[S-].[Pt+2] (stereo not given)
inactive: [7] 95 % of control | [8] 102 % of control | [9] 105 % of control

CCCCCCCCCCCC(=O)Nc1ccccc1
inactive: [3] 105 % of control | [10] 90 % of control | [11] 92 % of control

[Cu+2].[NH-]C1(C(=O)O)CCCC1.[NH-]C1(C(=O)O)CCCC1
inactive: [17] 93 % of control | [12] 93 % of control | [13] 93 % of control

Cc1c(N)nc(C(CC(N)=O)NCC(N)C(N)=O)nc1C(=O)NC(C(=O)NC(C)C(O)CC(=O)NC(C(=O)NC(OC1OC(C)C(N)C(O)C1O)C(O)c1nc(-c2nc(C(=O)NCCCC(N)CC(=O)NCCCNCCCCN)cs2)cs1)C(C)O)C(OC1OC(CO)C(O)C(O)C1OC1OC(CO)C(O)C(OC(N)=O)C1O)c1cnc[nH]1 (stereo not given)
inactive: dose: 0.2 mg/kg/injection, schedule: Q01DX009 (ip), vehicle: saline 113 % of control | dose: 0.8 mg/kg/injection, schedule: Q01DX009 (ip), vehicle: saline 90 % of control | dose: 1.6 mg/kg/injection, schedule: Q01DX009 (ip), vehicle: saline 101 % of control

CC1CC(C)(O)C2C3(C)CCCC2(COC3=O)C12CCC1(CCOC1=O)O2 (stereo not given)
inactive: [17] 102 % of control | [12] 94 % of control | [13] 98 % of control
